Where “and” joins values, the source holds several entries; their conditions need not be identical. Identical values can stand only once.
Tests used:
[1] = system: animal models of inflammatory pain (formalin test); conditions: administered locally; cited from earlier work
[2] = system: animal models of neuropathic pain (spinal nerve ligation); conditions: administered locally; cited from earlier work
[3] = system: subjects with osteoarthritis of the knee; experiment: Osteoarthritis of the knee safety study: VAS pain score at the target knee; format: in vivo, human
Method: (§1) Each subject had 3 study visits: a Screening Day (Day −7 to −1), the Treatment Day (Day 0), and a Post-Treatment Day (scheduled for Day +2, +4, +7, or +14). On the Treatment Day the subject was randomized, pre-treatment evaluation was performed. The patients were brought into the procedure room, and a VAS pain score was taken (0 mm-no pain, 100 mm-extreme pain). Once the patient had marked his or her pain on the card, he/she was prepped for knee cannulation. Once the cannula was placed, the patient received by intra-articular infiltration, 3 mg/kg (maximum dose of 200 mg) of 2% lignocaine into the knee scheduled to be replaced.
(§2) VAS pain scores as well as verbal reports were taken immediately following administration, as well as prior to knee replacement surgery. No subjects discontinued from the study due to adverse events.
On the Post-Treatment Day, study evaluation was performed followed by the scheduled knee replacement, with intra-operative bone and soft tissue biopsies performed for subsequent examination. […] This therefore left the 3 placebo and 9 active patients from the 4 day, 7 day, and 14 day cohorts.

[4] = system: subjects with osteoarthritis of the knee; experiment: Osteoarthritis of the knee safety study: safety and tolerability of intra-articular capsaicin; format: in vivo, human; conditions: for patients reporting transient burning pain / post injection hyperalgesia after instillation: 4 subjects
Method: The primary objective of the study was to evaluate the safety and tolerability of intra-articular capsaicin, when co-administered with intra-articular local anesthetic, compared to placebo, in subjects with end-stage osteoarthritis of the knee, already scheduled to receive knee replacements.
The study was designed to include 16 evaluation subjects. […] Sixteen subjects completed the study.
Patients were treated randomly and in double-blind fashion in four treatment groups, with each group having a progressively longer interval between the intra-articular administration of study medication and subsequent total knee replacement (2, 4, 7, and 14 days). […] Gross and microscopic pathology analysis was completed for each treatment group before the next treatment group was treated.
as §1, §2

[5] = design: species or system human; conditions: in vivo
Method: The pharmacokinetic parameters of Cmax, Tmax, AUC(0-tlast) and t½ were evaluated.

[6] = system: subjects undergoing transpositional osteotomy (bunionectomy); experiment: Bunionectomy efficacy study: VAS pain score and rescue medication; format: in vivo, human; conditions: for VAS pain score at operation site: 1000 μg into wound, mean +/- SEM, n = 11
Method: The primary efficacy endpoint was the proportion of subjects in each treatment group requiring opioid analgesia in the first 24 hours post-operatively. The proportions were compared amongst treatment groups using the Cochran-Haenszel test. Secondary efficacy end points included: i) proportion of subjects in each treatment group requiring opioid analgesia in the first 36 hour period post-operatively (Similarly, the proportions were compared amongst treatment groups using the Cochran-Haenszel test); ii) proportion of subjects in each treatment group requiring opioid analgesia in the 10 day period post-operatively (Similarly, the proportions were compared amongst treatment groups using the Cochran-Haenszel test); iii) time to first usage of opioid analgesia in each treatment group (a survival analysis approach will be used: the product-limit (Kaplan-Meier) method will be applied to time to first usage of opioid analgesia. The median time to first usage of opioid analgesia will be estimated in both treatment groups. Pairwise comparisons will be performed to test for equality of the survival curves between the 2 treatment groups using both the log-rank and the Wilcoxon test); iv) total usage of analgesia in each treatment group (the total usage of analgesia will be compared by an analysis of variance with treatment and center as independent variables. A pairwise comparison will be performed between the treatment groups); and v) VAS assessment of pain at the site of operation in each treatment group (The VAS score at each time point will be compared by an analysis of variance with treatment and center as independent variables. A pairwise comparison will be performed between the treatment groups). […] The efficacy analysis was performed on the data obtained ten days postoperatively. The safety analysis was performed based on the safety data for the entire study, including the 6 week and 12 week follow-up periods. The blind was broken at the time the efficacy analysis was performed. However, the individual treatment assignment was available to the statistical analysis group only. All other personnel involved in the study, including the Investigator, study monitor and proprietary staff, remained blinded until the entire study was completed.
The study was designed to include 40 evaluation subjects. […] Each subject had six (6) study visits: a Screening Day (Day −28 to −1), an Operation Day (Day 0), and four (4) Follow-up visits (scheduled for Days 3, 10 and weeks 6 and 12).
On Operation Day (Day 0) the following was performed: a) Pre-operation: Prior to the initiation of an ankle block, inclusion/exclusion criteria assessment was performed. […] Immediately prior to wound closure, the Investigator slowly dripped the study medication (4 mL) from a syringe into the wound, ensuring even tissue exposure. The wound was then be closed according to normal practices and procedures.
In the 24 hours following administration of study medication, vital signs (supine pulse rate and blood pressure) were recorded at 1, 2, 4 and 24 hours post administration. VAS assessment of pain at the operation site was performed at 1, 4, 8, 12 and 24 hours post administration. In those instances where VAS measurements coincide with blood sampling procedures, the VAS assessment was performed first. […] The quantity of each blood sample was 10 mL. Laboratory safety assessments, e.g., haematology, biochemistry, urinalysis were performed at 24 hours post administration. Adverse events were spontaneously reported by the subject and recorded. Rescue analgesia medication was provided to the subject if required (initially diclofenac 50 mg, repeated at 8 hourly intervals if necessary). When diclofenac was judged by the Investigator to provide inadequate pain relief then the subject was provided with alfentanil 1 mg, repeated at 6 hourly intervals, if necessary.

rats = conditions: systemic, cited from earlier work
[7] = organic solvents; cited from earlier work

CN(C)CCC=C1c2ccccc2CCc2ccccc21 [amitriptyline]
local antinociceptive action [1]: produced local antinociceptive actions | local antinociceptive action [2]: produced local antinociceptive actions

COc1cc(CNC(=O)CCCC/C=C/C(C)C)ccc1O [purified capsaicin, N-(4-hydroxy-3-methoxybenzyl)-8-methylnon-trans-6-enamide]
VAS reduction, prior to administration vs day of surgery ([3]; 9 active patients of 4, 7 and 14 day cohorts, 10-300 μg pooled): 62±14% | median decrease from baseline to pre-operative time point in VAS for pain at target knee vs placebo ([3]; all 3 capsaicin dose groups): substantially greater | treatment related indication of efficacy (VAS) ([3]; any of the dose levels 10, 100, 300 μg): No clear treatment related indication of efficacy | patients reporting transient burning pain / post injection hyperalgesia after instillation ([4]; 10 μg intra-articular after 2% lignocaine): no subjects | patients reporting transient burning pain / post injection hyperalgesia after instillation ([4]; 10 μg intra-articular after 2% lignocaine, listed as capsaicin): 0 of 4 | duration of post-administration (hyper) algesic pain ([4]; 100 μg dose group, individual subject): 9 min | patients reporting transient burning pain / post injection hyperalgesia after instillation ([4]; 100 μg intra-articular after 2% lignocaine): 1 | patients reporting transient burning pain / post injection hyperalgesia after instillation ([4]; 100 μg intra-articular after 2% lignocaine, listed as capsaicin): 1 of 4 | patients reporting transient burning pain / post injection hyperalgesia after instillation ([4]; 300 μg intra-articular after 2% lignocaine): 4 | patients reporting transient burning pain / post injection hyperalgesia after instillation ([4]; 300 μg intra-articular after 2% lignocaine, listed as capsaicin): 4 of 4 | effects on laboratory safety parameters or vital signs ([4]; 10-300 μg): no treatment related effects | effects on soft tissue, cartilage, or bone upon histopathological examination ([4]; 10-300 μg): no treatment related effects | signs of erythema, edema, or hemorrhage at the site of injection ([4]; 10-300 μg): no treatment related signs | systemic side effects ([4]; 10-300 μg): No treatment related systemic side effects | average duration of hyperalgesia ([4]; all cases): less than thirty minutes | gross and microscopic pathology ([4]; knee replaced 2-14 days after dosing): normal | plasma concentrations compared with 100 μg or 300 μg dose groups [5]: clearly lower | effect on pain score and use of rescue ([6]; 1000 μg into the wound prior to wound closure): reduced both pain score as well as the use of rescue | time at which subject required rescue ([6]; 1000 μg, individual subjects): 1 h and 4 h and 5 h and 8 h and 12 h | VAS pain score at operation site ([6]; 8 hr): 5.5 +/− 2.3 | VAS pain score at operation site ([6]; 12 hr): 8.2 +/− 3.8 | VAS pain score at operation site ([6]; 24 hr): 1.9 +/− 1.0 | VAS pain score at operation site ([6]; 48 hr): 5.9 +/− 2.5 | effect on pain threshold (rats; final doses 50 mg/kg or greater): pain threshold elevated | effect on radiation induced hyperalgesia and pain threshold (rats; final doses of 25 mg/kg or less, prior to ultra violet radiation): prevented radiation induced hyperalgesia, but did not elevate the pain threshold above normal range | solubility in alcohol, ether, benzene and chloroform [7]: freely soluble

CNCCCN1c2ccccc2CCc2ccccc21 [desipramine]
local antinociceptive action [1]: produced local antinociceptive actions | local antinociceptive action [2]: produced local antinociceptive actions

Source: patent US20090117167A1 (AlgoRx, priority 2002, published 2009)
